Here are results for one compound from ChEMBL document CHEMBL4014291, “Tripodal squaramide conjugates as highly effective transmembrane anion transporters” (Bioorg Med Chem Lett, 2017).

A short description of this assay: Ionophoric activity across HPTS dye encapsulated pH 7 egg yolk L-alpha-phosphatidylcholine-based large unilamellar vesicles assessed as chloride ion transport by measuring induction of pH discharge in presence of NaCl loaded external vesicles by fluorescence method.

For the compound `O=C(Nc1ccccc1)Nc1ccc(N2COc3c(c4c(c5c3CN(c3ccc(NC(=O)Nc6ccccc6)cc3)CO5)CN(c3ccc(NC(=O)Nc5ccccc5)cc3)CO4)C2)cc1`, the EC50 was 0.49 mol%.
